Assay results reported in US20250340556A1, “PYRIMIDOPYRIMIDONE COMPOUNDS AND METHODS OF USE THEREOF” (Soltego, Inc., priority 2022, published 2025).
Entries after “also recorded” stand apart in the source; their conditions may differ. Where two headings read alike, the source gives them in different places.

What was measured:
SIK2 (h) = SIK2 (h) (Homo sapiens (Human), UniProt Q9H0K1); assay: SIK2 kinase activity, Eurofins KinaseProfiler ([γ-33P]-ATP filter assay); format: biochemical; conditions: Table 6, macrocycles; read-out: IC50 nM SIK2
Procedure: (§1) SIK1, 2 and 3 kinase activity was assessed using a Eurofins Cerep S.A. (‘Eurofins’) KinaseProfiler. All compounds were prepared to 50× final assay concentration in 100% DMSO. This working stock of the compound was added to the assay well as the first component in the reaction, followed by the remaining components as detailed in the general assay protocols below. In the standard KinaseProfiler service, there is no pre-incubation step between the compound and the kinase prior to initiation of the reaction. The positive control well contains all components of the reaction, except the compound of interest; however, DMSO (at a final concentration of 2%) is included in these wells to control for solvent effects. The blank wells contain all components of the reaction, with a reference inhibitor replacing the compound of interest. This abolishes kinase activity and establishes the base-line (0% kinase activity remaining).
(§2) SIK2 (h) was incubated with 8 mM MOPS pH 7.0, 0.2 mM EDTA, 100 μM […], 10 mM Magnesium acetate and [γ-33P-ATP](specific activity and concentration as required). The reaction was initiated by the addition of the Mg/ATP mix. After incubation for 40 minutes at room temperature, the reaction was stopped by the addition of phosphoric acid to a concentration of 0.5%, 10 μL of the reaction was then spotted onto a P30 filtermat and washed four times for 4 minutes in 0.425% phosphoric acid and once in methanol prior to drying and scintillation counting.

B16 4A5 cells = assay: B16 4A5 cell viability, MTS assay; format: cell-based, mouse; conditions: 72 h, compared with DMSO 0.1% control; for viability of cells: 5 μg/mL
Procedure: B16 4A5 cells were seeded in 24-well plates at 20,000 cells/well, 24 h before the beginning of the treatment with test compounds at 5 concentrations, in triplicates (n=3). […] Additionally, DMSO at 0.1%, used for solubilization of the test compounds, was tested in parallel. The treatments were performed in culture medium containing only 1% of FBS. […] The effects of the compounds on B16 4A5 viability was assessed. To this purpose, cells were incubated during 72 h with 5 concentrations of the compounds, were left untreated, treated with SDS or with DMSO 0.1%.

[1] = tested on: living human skin explants; assay: Cell viability of living human skin explants, Masson's trichrome staining (Example 8); format: cell-based; conditions: 1% topical in vehicle E
Procedure: All the tested products were diluted in the vehicle noted as E (Ethanol 65%, Propylene glycol 25%, Transcutol 10%). The diluted solutions were stored at 4° C. within the study period. 36 human skin explants of an average diameter of 11 mm (+1 mm) were prepared on an abdoplasty coming from a person (reference: P2462-AB53) with a III phototype. The explants were kept in survival in BEM culture medium (BIO-EC's Explants Medium) at 37° C. in a humid, 5%-CO2 atmosphere. Study is performed on human skin tissue, obtained from surgical residues in full respect with the Declaration of Helsinki and the article L. 1243-4 of the French Public Health Code.
The excipient E and the tested products were applied topically at a rate of 2 μL per 1 cm^2 explant (˜2 mg/cm^2) and spread and gently rubbed for 10 seconds using a small spatula on day 0 (DO), D3, D5, D7 and D10. […] The culture medium was half renewed (1 ml per well) on D3, D5, D7 and D10. On D0, D3, D4, D5, D6, D7 and D10, the culture media of the irradiated explants (UV) were replaced by HBSS (Hank's Balanced Saline Solution; 1 ml per explant). Then, the explants of the “UV” batch were irradiated using a UV simulator Vibert Lourmat RMX 3W with a dose of 2.25 J/cm^2 of UVA (with 6-8% of UVB) corresponding to 0.5 MED (minimal erythemal dose) on a skin with a III phototype. At the end of the UV irradiation, the explants form the batch TUV were put back in 2 mL of BEM medium. On D0, the 3 explants from the batch TO were collected and cut in two parts. Half was fixed in buffered formalin solution and half was frozen at −80° C. On D10, 3 explants from the concerned batches were collected and treated in the same way than in DO. According to the dispositions mentioned in the study plan, the days of treatments, irradiations and sampling were adjusted to the schedule of working days. After fixation for 24 hours in buffered formalin, the samples were dehydrated and impregnated in paraffin using a Leica PEARL dehydration automat. The samples were embedded using a Leica EG 1160 embedding station. 5-μm-thick sections were made using a Leica RM 2125 Minot-type microtome, and the sections were mounted on Superfrost® histological glass slides. The frozen samples were cut into 7-μm-thick sections using a Leica CM 3050 cryostat. Sections were then mounted on Superfrost®, plus silanized glass slides. The microscopical observations were realized using a Leica DMLB or Olympus BX43 microscope. Pictures were digitized with a numeric DP72 Olympus camera with CellSens storing software.
The cell viability of the epidermal and dermal structures was assessed by microscopical observation of formalin-fixed paraffin-embedded (FFPE) skin sections after Masson's trichrome staining, Goldner variant.

[2] = ester bond
SIK1 = SIK1 (Homo sapiens (Human), UniProt P57059); assay: cell-based
[3] = tested on: living human skin explants; assay: Melanin in living human skin explants, Fontana-Masson staining (Example 9); format: cell-based; conditions: for melanin content (staining, microscopical observation): Propylene glycol 30%; for surface occupied by melanin in the basal cell layer of the epidermis: vehicle E 7.9
Procedure: All the tested products were diluted in the vehicle (Ethanol 70%, Propylene glycol 30%). 24 human skin explants of an average diameter of […] were prepared on an abdoplasty coming from a person (reference: P2511-AB43) with a II phototype. The explants were kept in survival in BEM culture medium (BIO-EC's Explants Medium) at 37° C. in a humid, 5%-CO2 atmosphere. Products were applied topically at a rate of 2 μL per 1 cm^2 explant (2 mg/cm^2) and spread and gently rubbed for 10 seconds using a small spatula on day 0 (D0), D2, D5 and D7. […] The culture medium was half renewed (1 ml per well) on D2, D5 and D7. After fixation for 24 hours in buffered formalin, the samples were dehydrated and impregnated in paraffin using a Leica PEARL dehydration automat. The samples were embedded using a Leica EG 1160 embedding station. 5-μm-thick sections were made using a Leica RM 2125 Minot-type microtome, and the sections were mounted on Superfrost® histological glass slides. The frozen samples were cut into 7-μm-thick sections using a Leica CM 3050 cryostat. Sections were then mounted on Superfrost® plus silanized glass slides. The microscopical observations were realized using a Leica DMLB or Olympus BX43 microscope. Pictures were digitized with a numeric DP72 Olympus camera with CellSens storing software. Melanin was visualized after silver impregnation according to Masson's Fontana staining method on FFPE skin sections. The staining was assessed by microscopical observation (FIG. 5) and by image analysis (FIG. 6).

SIK3 (h) = SIK3 (h) (Homo sapiens (Human), UniProt Q9Y2K2); assay: SIK3 kinase activity, Eurofins KinaseProfiler ([γ-33P]-ATP filter assay); format: biochemical; conditions: Table 6, macrocycles
Procedure: as §1
as §2, with “SIK3 (h) was” for “SIK2 (h) was”, “the reaction is stopped by” for “the reaction was stopped by”, “0.5%, […] of the” for “0.5%, 10 μL of the”

SIK (h) / SIK1 = SIK (h) / SIK1 (Homo sapiens (Human), UniProt P57059); assay: SIK1 kinase activity, Eurofins KinaseProfiler ([γ-33P]-ATP filter assay); format: biochemical; conditions: Table 6, macrocycles
Procedure: as §1
as §2, with “SIK” for “SIK2”, “[γ-33P]-ATP (specific” for “[γ-33P-ATP](specific”

[4] = tested on: living human skin explants; assay: Pigmentation of living human skin explants ex vivo (Example 10); format: cell-based; conditions: 15 mM and 21 mM, 5 μL/cm2 topically each day for 6 days
Procedure: SLT-045 (3, 7, 15, 21 mM; 5 μL/cm2) in vehicle (44.9% DMSO/37.5% EtOH/17.4% propylene glycol) was applied topically applied using a Pasteur pipette, each day for 6 days using triplicate skin samples (8 mm punch).

[5] = tested on: living human skin explants; format: cell-based

Chain of SIK1 (P57059 whole entry): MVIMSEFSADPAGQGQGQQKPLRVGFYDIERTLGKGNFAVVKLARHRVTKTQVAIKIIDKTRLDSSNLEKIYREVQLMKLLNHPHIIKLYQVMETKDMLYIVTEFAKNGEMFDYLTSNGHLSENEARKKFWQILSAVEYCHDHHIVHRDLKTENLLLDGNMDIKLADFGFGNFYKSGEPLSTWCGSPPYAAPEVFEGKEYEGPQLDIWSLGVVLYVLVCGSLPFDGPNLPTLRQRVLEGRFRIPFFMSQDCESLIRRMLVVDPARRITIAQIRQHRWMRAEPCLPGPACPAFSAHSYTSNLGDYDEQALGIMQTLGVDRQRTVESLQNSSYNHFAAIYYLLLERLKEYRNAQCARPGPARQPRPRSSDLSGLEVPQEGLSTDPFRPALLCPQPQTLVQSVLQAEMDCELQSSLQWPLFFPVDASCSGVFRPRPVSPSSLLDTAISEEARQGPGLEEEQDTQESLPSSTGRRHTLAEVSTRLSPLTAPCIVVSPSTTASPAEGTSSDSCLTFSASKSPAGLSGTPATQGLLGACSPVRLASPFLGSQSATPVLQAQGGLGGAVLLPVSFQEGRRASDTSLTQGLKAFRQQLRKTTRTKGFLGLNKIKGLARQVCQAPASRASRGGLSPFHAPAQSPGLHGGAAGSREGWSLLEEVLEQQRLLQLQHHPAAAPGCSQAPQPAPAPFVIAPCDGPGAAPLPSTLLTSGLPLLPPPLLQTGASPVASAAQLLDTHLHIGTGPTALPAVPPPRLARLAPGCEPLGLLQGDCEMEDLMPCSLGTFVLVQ

Cc1cccc(C)c1N1Cc2cnc3nc2N(CCCOC(=O)Cc2cc(ccc2N2CCN(C)CC2)N3)C1=O [SLT-048]
IC50 (SIK2 (h)): 0.6 nM | viability of cells (B16 4A5 cells): slightly diminished | cell viability of epidermal and dermal structures [1]: very slightly decreased | ring closure, isolated yield ([2]; from Cc1cccc(C)c1N1Cc2cnc(Nc3ccc(N4CCN(C)CC4)c(CC(=O)O)c3)nc2N(CCCO)C1=O, 14-membered ring, DCC/DMAP/3A MS, DCM/DMF, 25.0 °C, 2.0 h): 21% | EC50 (SIK1): 2.58 nM | change of surface occupied by melanin in the basal cell layer vs the vehicle ([3]; 0.2% topical): +24% | melanin content (staining, microscopical observation) ([3]; 0.2% topical in Ethanol 70%): slight increase; also recorded: increased | surface occupied by melanin in the basal cell layer of the epidermis ([3]; 0.2% topical): 10.0 | change of surface occupied by melanin in the basal cell layer vs the vehicle ([3]; 2% topical): +56% | melanin content (staining, microscopical observation) ([3]; 2% topical in Ethanol 70%): moderate increase; also recorded: highly increased | surface occupied by melanin in the basal cell layer of the epidermis ([3]; 2% topical): 12.6

Cc1cccc(C)c1N1Cc2cnc3nc2N(CCC(=O)OCc2cc(ccc2N2CCN(C)CC2)N3)C1=O [SLT-023]
IC50 (SIK2 (h)): 3 nM | cell viability (B16 4A5 cells; 0.7 μg/mL): slightly decreased | viability of cells (B16 4A5 cells): slightly diminished | IC50 (SIK3 (h)): 18 nM | cell viability of epidermal and dermal structures [1]: very slightly decreased | ring closure, isolated yield ([2]; from Cc1cccc(C)c1N1Cc2cnc(Nc3ccc(N4CCN(C)CC4)c(CO)c3)nc2N(CCC(=O)O)C1=O, 13-membered ring, EDC.HCl/HOBt/DMAP/3A MS, DCM, 8.04 mM, 25.0 °C, 16.0 h): 33% | EC50 (SIK1): 86.6 nM | IC50 (SIK (h) / SIK1): 3 nM

COC(=O)Cc1cc(Nc2ncc3c(n2)N(CCCO)C(=O)N(c2c(C)cccc2C)C3)ccc1N1CCN(C)CC1 [SLT-045]
visual skin pigmentation [4]: induced a visual skin pigmentation

Cc1cccc(C)c1N1Cc2cnc3nc2N(CCCCOC(=O)c2cc(ccc2N2CCN(C)CC2)N3)C1=O [SLT-042]
IC50 (SIK2 (h)): 0.7 nM | IC50 (SIK3 (h)): 2 nM | cell viability of epidermal and dermal structures [1]: very slightly decreased | ring closure, isolated yield ([2]; from Cc1cccc(C)c1N1Cc2cnc(Nc3ccc(N4CCN(C)CC4)c(C(=O)O)c3)nc2N(CCCCO)C1=O, 14-membered ring, 2,4,6-trichlorobenzoyl chloride/TEA, DMAP, toluene/DMF, 5.0 mM, 110.0 °C, 16.0 h): 22% | EC50 (SIK1): 2.02 nM | increase of melanin in the suprabasal layers [5]: 25% | IC50 (SIK (h) / SIK1): 2 nM

Cc1cccc(C)c1N1Cc2cnc3nc2N(CCCC(=O)OCc2cc(ccc2N2CCN(C)CC2)N3)C1=O [SLT-026]
IC50 (SIK2 (h)): 2 nM | IC50 (SIK3 (h)): 3 nM | cell viability of epidermal and dermal structures [1]: very slightly decreased | ring closure, isolated yield ([2]; from Cc1cccc(C)c1N1Cc2cnc(Nc3ccc(N4CCN(C)CC4)c(CO)c3)nc2N(CCCC(=O)O)C1=O, 14-membered ring, DCC/DMAP/3A MS, DCM/DMF, 5.37 mM, 25.0 °C, 16.0 h): 9% | EC50 (SIK1): 3.24 nM | increase of melanin in the suprabasal layers [5]: 50% | IC50 (SIK (h) / SIK1): 2 nM
